This passage reports IC50 results from patent publication US10112940B2, “Histone demethylase inhibitors” (Celgene Quanticel Research, Inc., priority 2014, dated 2018).

In one assay the target is JMJD2C (Homo sapiens (Human), UniProt Q9H3R0). The assay is described as follows: JMJD2C in vitro enzyme inhibition assay (TR-FRET). It counts as biochemical. The conditions noted are these: 0.3 nM JMJD2C, 300 nM H3K9me3-biotin peptide, 2 μM alpha-ketoglutaric acid, 30 minutes. The method, boiled down:
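Baculovirus-expressed JMJD2C (aa 2-372), 0.3 nM, with 300 nM biotin-H3K9me3 peptide and 2 μM alpha-ketoglutarate in HEPES pH 7.3 with ascorbate and Fe(II), 30 min at room temperature, 11-point inhibitor series. H3K9me2 product detected by TR-FRET (Eu-antibody/streptavidin-APC, 665/615 ratio); IC50 fitted.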

Assay [1] relates to KYSE-150 esophageal carcinoma cell line. The assay is described as follows: In vitro cell-based assay: BrdU incorporation cell proliferation ELISA. Also noted: species or system human. The following applies: Homo sapiens, KYSE-150 cells, 168 hours compound incubation, read-out: Cellular IC50. The method, boiled down:
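KYSE-150 cells (SMAD4 mut, TP53 mut) seeded at 2,000 cells/well, treated next day with 11-point dilutions (100 μM to 2 nM final) for 168 h. Proliferation read by 2 h BrdU labelling and colorimetric anti-BrdU ELISA at 450 nm; IC50 from curve fit.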

Molecules are shown by their SMILES.

JMJD2C, sequence (Q9H3R0 2-372): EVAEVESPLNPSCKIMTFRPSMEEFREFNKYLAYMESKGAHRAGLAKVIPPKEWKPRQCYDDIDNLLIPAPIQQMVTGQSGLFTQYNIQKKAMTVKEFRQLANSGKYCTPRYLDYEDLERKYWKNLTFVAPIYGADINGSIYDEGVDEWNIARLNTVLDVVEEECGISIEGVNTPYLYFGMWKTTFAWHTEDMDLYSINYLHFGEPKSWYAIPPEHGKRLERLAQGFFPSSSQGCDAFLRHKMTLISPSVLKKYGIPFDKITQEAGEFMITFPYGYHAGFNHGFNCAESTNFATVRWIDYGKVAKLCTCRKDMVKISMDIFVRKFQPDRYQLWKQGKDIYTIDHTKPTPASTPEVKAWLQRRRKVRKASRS

As to `CN(c1ccc(Oc2nc(O)c3ccncc3n2)cc1)c1ccnc(N2CCOCC2)c1` [Example 61, 2-[4-[methyl-(2-morpholin-4-ylpyridin-4-yl)amino]phenoxy]pyrido[3,4-d]pyrimidin-4-ol], the IC50 against JMJD2C is at most 100 nM; in assay [1] it was above 10000 nM.

`CN(c1ccc(Oc2nc(O)c3ccncc3n2)cc1)c1ccc(C2CCOCC2)cc1` [Example 99, 2-[4-[N-methyl-4-(oxan-4-yl)anilino]phenoxy]pyrido[3,4-d]pyrimidin-4-ol]: the IC50 is 100 to 1000 nM against JMJD2C and at most 100 nM in assay [1].

Consider `CCc1ccc(N(C)c2ccc(Oc3nc(O)c4ccncc4n3)cc2)cc1OCCN(C)C` [Example 65, 2-[4-[3-[2-(dimethylamino)ethoxy]-4-ethyl-N-methylanilino]phenoxy]pyrido[3,4-d]pyrimidin-4-ol], for which the IC50 against JMJD2C is at most 100 nM; in assay [1], above 10000 nM.

As to `CN(c1ccc(Oc2nc(O)c3ccncc3n2)cc1)c1ccc(C(F)(F)F)cc1` [Example 87, 2-[4-[N-methyl-4-(trifluoromethyl)anilino]phenoxy]pyrido[3,4-d]pyrimidin-4-ol], the results for the IC50 (on JMJD2C; in assay [1]) were 1000 to 10000 nM and 100 to 1000 nM, respectively.

On to `CN1CCN(c2ccc(N(C)c3ccc(Oc4nc(O)c5ccncc5n4)cc3)cc2)CC1` [Example 46, 2-[4-[N-methyl-4-(4-methylpiperazin-1-yl)anilino]phenoxy]pyrido[3,4-d]pyrimidin-4-ol], for which the results for the IC50 (against JMJD2C; in assay [1]) were 100 to 1000 nM and above 10000 nM, respectively.

As for `CCc1ccc(N(C)c2ccc(Oc3nc(O)c4ccncc4n3)cc2)cc1N1CCN(C)CC1` [Example 60, 2-[4-[4-ethyl-N-methyl-3-(4-methylpiperazin-1-yl)anilino]phenoxy]pyrido[3,4-d]pyrimidin-4-ol], the IC50 against JMJD2C was at most 100 nM; in assay [1] it was above 10000 nM.

Regarding `COCCN(c1ccc(Oc2nc(O)c3ccncc3n2)cc1)c1ccc(C(C)C)cc1` [Example 102, 2-[4-[N-(2-methoxyethyl)-4-propan-2-ylanilino]phenoxy]pyrido[3,4-d]pyrimidin-4-ol], the half-inhibitory concentration (IC50) (against JMJD2C; in assay [1]) was 100 to 1000 nM in each case.

For the compound `Cc1ccc(N(C)c2ccc(Oc3nc(O)c4ccncc4n3)cc2)cc1N1CCOCC1` [Example 55, 2-[4-(N,4-dimethyl-3-morpholin-4-ylanilino)phenoxy]pyrido[3,4-d]pyrimidin-4-ol], the results for the IC50 (on JMJD2C; in assay [1]) were 100 to 1000 nM and 1000 to 10000 nM, respectively.

Turning to `CN(c1ccc(Oc2nc(O)c3ccncc3n2)cc1)c1cccc(S(C)(=O)=O)c1` [Example 56, 2-[4-(N-methyl-3-methylsulfonylanilino)phenoxy]pyrido[3,4-d]pyrimidin-4-ol], the values for the IC50 (against JMJD2C; in assay [1]) were 100 to 1000 nM and above 10000 nM, respectively.

For `Oc1nc(Oc2ccc(N3CCOC(c4ccccc4)C3)cc2)nc2cnccc12` (centres unmarked) [Example 26, 2-[4-(2-phenyl-morpholin-4-yl)-phenoxy]-pyrido[3,4-d]pyrimidin-4-ol], the IC50 against JMJD2C is 100 to 1000 nM; in assay [1], above 10000 nM.

Take `CC(C)Oc1ccc(N(C)c2ccc(Oc3nc(O)c4ccncc4n3)cc2)cc1` [Example 111, 2-[4-(N-methyl-4-propan-2-yloxyanilino)phenoxy]pyrido[3,4-d]pyrimidin-4-ol]: the 50% inhibitory concentration (IC50) (against JMJD2C; in assay [1]) was 100 to 1000 nM in each case.

As for `Oc1nc(Oc2ccc3c(c2)CCN3c2ccccc2)nc2cnccc12` [Example 32, 2-(1-phenyl-2,3-dihydro-1H-indol-5-yloxy)-pyrido[3,4-d]pyrimidin-4-ol], the results for the concentration for half-maximal inhibition (IC50) (against JMJD2C; in assay [1]) were 100 to 1000 nM and 1000 to 10000 nM, respectively.

Turning to `Oc1nc(Oc2ccc3cn(Cc4ccccc4)nc3c2)nc2cnccc12` [Example 12, 2-(2-Benzyl-2H-indazol-6-yloxy)-pyrido[3,4-d]pyrimidin-4-ol], the half-inhibitory concentration (IC50) is 100 to 1000 nM against JMJD2C and 1000 to 10000 nM in assay [1].

With `CN1CCN(c2cccc(N(C)c3ccc(Oc4nc(O)c5ccncc5n4)cc3)c2)CC1` [Example 79, 2-[4-[N-methyl-3-(4-methylpiperazin-1-yl)anilino]phenoxy]pyrido[3,4-d]pyrimidin-4-ol], the IC50 (against JMJD2C; in assay [1]) was at most 100 nM each time.

Turning to `CN(c1ccc(OCC(C)(C)C)cc1)c1ccc(Oc2nc(O)c3ccncc3n2)cc1` [Example 75, 2-[4-[4-(2,2-dimethylpropoxy)-N-methylanilino]phenoxy]pyrido[3,4-d]pyrimidin-4-ol], the IC50 on JMJD2C is 1000 to 10000 nM; in assay [1] it was at most 100 nM.

Turning to `CC(c1ccc(N(C)c2ccc(Oc3nc(O)c4ccncc4n3)cc2)cc1)C(F)(F)F` (centres unmarked) [Example 108, 2-[4-[N-methyl-4-(1,1,1-trifluoropropan-2-yl)anilino]phenoxy]pyrido[3,4-d]pyrimidin-4-ol], the half-maximal inhibitory concentration (IC50) was 100 to 1000 nM at JMJD2C and at most 100 nM in assay [1].

Take `CC[C@H](C)c1ccc(N(C)c2ccc(Oc3nc(O)c4ccncc4n3)cc2)cc1` [Example 77, 2-[4-[4-[(2S)-butan-2-yl]-N-methylanilino]phenoxy]pyrido[3,4-d]pyrimidin-4-ol]: the IC50 was 1000 to 10000 nM against JMJD2C and at most 100 nM in assay [1].

For `CN(c1ccc(Oc2nc(O)c3ccncc3n2)cc1)c1cncc(N2CCOCC2)c1` [Example 27, 2-{4-[methyl-(5-morpholin-4-yl-pyridin-3-yl)-amino]-phenoxy}-pyrido[3,4-d]pyrimidin-4-ol], the concentration for half-maximal inhibition (IC50) on JMJD2C is 100 to 1000 nM; in assay [1], above 10000 nM.

Take `CN1CCN(Cc2cccc(N(C)c3ccc(Oc4nc(O)c5ccncc5n4)cc3)c2)CC1` [Example 41, 2-(4-{methyl-[3-(4-methyl-piperazin-1-ylmethyl)-phenyl]-amino}-phenoxy)-pyrido[3,4-d]pyrimidin-4-ol]: the results for the half-maximal inhibitory concentration (IC50) (against JMJD2C; in assay [1]) were at most 100 nM and 1000 to 10000 nM, respectively.

Turning to `CCc1ccc(N(C)c2ccc(Oc3nc(O)c4ccncc4n3)cc2)nc1` [Example 97, 2-[4-[(5-ethylpyridin-2-yl)-methylamino]phenoxy]pyrido[3,4-d]pyrimidin-4-ol], the IC50 (against JMJD2C; in assay [1]) was 100 to 1000 nM in each case.

On to `CCc1ccc(N(C)c2ccc(Oc3nc(O)c4ccncc4n3)cc2)cc1N1CCOCC1` [Example 59, 2-[4-(4-ethyl-N-methyl-3-morpholin-4-ylanilino)phenoxy]pyrido[3,4-d]pyrimidin-4-ol], for which the 50% inhibitory concentration (IC50) is at most 100 nM against JMJD2C and above 10000 nM in assay [1].

`CC(CC#N)c1ccc(N(C)c2ccc(Oc3nc(O)c4ccncc4n3)cc2)cc1` (centres unmarked) [Example 30, 3-(4-{[4-(4-hydroxy-pyrido[3,4-d]pyrimidin-2-yloxy)-phenyl]-methyl-amino}-phenyl)-butyronitrile]: the values for the concentration for half-maximal inhibition (IC50) (at JMJD2C; in assay [1]) were 100 to 1000 nM and at most 100 nM, respectively.

Turning to `CCN(c1ccccc1)c1ccc(Oc2nc(O)c3ccncc3n2)cc1` [Example 80, 2-[4-(N-ethylanilino)phenoxy]pyrido[3,4-d]pyrimidin-4-ol], the IC50 (at JMJD2C; in assay [1]) was 100 to 1000 nM throughout.

In the case of `COCC(C)(C)c1ccc(N(C)c2ccc(Oc3nc(O)c4ccncc4n3)cc2)cc1` [Example 67, 2-[4-[4-(1-methoxy-2-methylpropan-2-yl)-N-methylanilino]phenoxy]pyrido[3,4-d]pyrimidin-4-ol], the figures for the IC50 (against JMJD2C; in assay [1]) were 1000 to 10000 nM and at most 100 nM, respectively.

With `CN(c1ccc(Oc2nc(O)c3ccncc3n2)cc1)c1ccc(N2CCC(N)CC2)cc1` [Example 23, 2-(4-{[4-(4-amino-piperidin-1-yl)-phenyl]-methyl-amino}-phenoxy)-pyrido[3,4-d]pyrimidin-4-ol], the IC50 against JMJD2C was 100 to 1000 nM; in assay [1] it was 1000 to 10000 nM.
